The values below come from US10550155B2, “Anticancer peptides” (priority 2018, dated 2020).

For data set [1], the system named is MCF-7 human breast cancer cell line. The data set can be described thus: MTT cytotoxicity assay, MCF-7 cells. It counts as cell-based. The conditions noted are these: MTT. Here is the method: (§1) The cytotoxic as well as antiproliferative effect of peptides was determined using MTT [3-(4, 5-dimethylthiazol-2-yl)-2, 5-diphenyl tetrazolium bromide] colorimetric assay. MCF-7, NIH-3T3, HeLa and H460 cells were cultured and after confluency, cells were used to test the cytotoxicity by MTT assay. Briefly (3×10^4/mL) of MCF-7 and (2×10^4/mL) cells of NIH-3T3, HeLa and H460 were seeded in 96-wells plate and incubated at 37° C. in 5% CO2 for 24 h. The MCF-7 cells were then treated with different doses of peptides and re-incubated in 5% CO2 at 37° C. for 48 hours. […] Experiment was performed three times and all doses were repeated in triplicate and the calculations were done using formula for percent inhibition.
On the technique in general: Tetrazolium dyes change colour on reduction, which living cells bring about.

The test system of data set [2] is bacteria, yeasts, fungi, and protozoa. Conditions: cited from earlier work.
Another data set relates to fibroblasts. The conditions noted are these: cited from earlier work.
For another data set, the system named is H460 cells. The data set can be described thus: MTT cytotoxicity assay, H460 cells. The data set is classed as cell-based. The conditions noted are these: MTT. Here is the method:
as §1

A further data set has as its system human erythrocytes. The conditions noted are these: cited from earlier work.
Another data set concerns HeLa cells. Put plainly: MTT cytotoxicity assay, HeLa cells. The data set is classed as cell-based. Conditions: MTT. The method, then: as §1
Data set [3] is described as follows: MTT cytotoxicity assay, 3T3 cells. It counts as cell-based, mouse. Conditions: mouse, Cytotoxicity IC50, 3T3. Here is the method: as §1
In data set [4] the test system is DoHH2 cells (B-cell lymphoma). Put plainly: Alamar blue viability assay, DoHH2 cells. The data set is classed as cell-based. Conditions: Alamar blue. The method, then:
The viability of DoHH2 cells was determined by Alamar blue assay. Briefly 200 μl of 1×10^5 cells/ml were incubated with different concentrations of compounds for 24 hours. A one-tenth volume of Alamar blue was then added and the incubation continued for 4 hrs. Absorbance was read in spectrophotometer at wavelengths of 570 nm and 600 nm.
(Alamar Blue is a resazurin reagent that responds to reducing activity.)

Data set [5] concerns THP-1-derived macrophages. The conditions noted are these: cited from earlier work.
Data set [6] has as its system Leishmania infantum promastigote and amastigote. The conditions noted are these: cited from earlier work.
The test system of a further data set is THP-1 monocytes. The conditions noted are these: cited from earlier work.
Another data set relates to MCF-7 cells. Put plainly: Cell-growth on bead assay. The data set is classed as cell-based, human. Conditions: peptide on bead.

Where a SMILES comes first, the peptide text is derived from it. Where no end group is shown, it is not given here.

The IC50 is the concentration at which inhibition is half-maximal. With `CC[C@H](C)[C@H](NC(=O)CNC(=O)[C@H](CO)NC(=O)[C@H](CC(C)C)NC(=O)[C@@H](N)Cc1ccccc1)C(=O)N[C@H](C(=O)NCC(=O)N[C@@H](CCSC)C(=O)N[C@@H](CC(C)C)C(=O)NCC(=O)N[C@@H](CCCCN)C(=O)N[C@@H](CC(C)C)C(=O)N[C@@H](Cc1ccccc1)C(N)=O)C(C)C` [peptide 1, F-L-S-G-I-V-G-M-L-G-K-L-F, reference compound] (H-FLSGIVGMLGKLF-NH2), the “Activity against MCF-7 cell line (in words)” value in data set [1] is “active”. In addition, the IC50 in data set [1] (48 hours, read-out: Cytotoxicity IC50, MCF-7) was 14.5 ± 0.57 µM; in the data set with H460 cells (48 hours, read-out: Cytotoxicity IC50, H460) it was 34.5 ± 1.5 µM; in the data set on HeLa cells (48 hours, read-out: Cytotoxicity IC50, HeLa) it was 18.4 ± 0.92 µM; in data set [3], 73.3 ± 0.07 µM; in [4] (24 hours, read-out: Cytotoxicity IC50, DoHH2) it was greater than 100 µM. The “Antimicrobial / antibacterial activity (literature)” value in [2] is given as “potent inhibitor”. Also, the “Cytotoxicity on fibroblasts (literature)” value with fibroblasts is reported as “no cytotoxicity”. Moreover, the “Activity against H460 cell line (in words)” value with H460 cells is recorded as “active”. The “Cytotoxicity on human erythrocytes (literature)” value with human erythrocytes is “low cytotoxicity”. In addition, in the data set with HeLa cells, the “Activity against HeLa cell line (in words)” value was “active”. Besides, the “Activity against DoHH2 cell line (in words)” value in data set [4] is reported as “no cytotoxicity”. The “Cytotoxicity on THP-1-derived macrophages (literature)” value in data set [5] is given as “low cytotoxicity”. Besides, the “Antiparasitic activity (literature)” value in data set [6] is recorded as “antiparasitic activity”. Also, in the data set with THP-1 monocytes, the “Cytotoxicity on THP-1 monocytes (literature)” value is listed as “low cytotoxicity”.

Regarding “WLEAAYQKFL (not fully specified) [peptide A, breast cancer targeting peptide ligand]”, the “Binding to MCF-7 cells” value with MCF-7 cells is given as “strong binding”.
